Test results reported in ChEMBL document CHEMBL1201862, “PubChem BioAssay data set” (2004).
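Grown in 96-well plates, cells were treated for 48 hours with each compound at five concentrations. Insufficient inhibition: endpoint recorded as highest concentration tested. GI50 = concentration required for 50% inhibition of growth.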 Active and inactive are the calls of the source. Cut-off read from the data, not from the text of the source: active = GI50 up to about 1.1 µM and inactive = higher.

Columns and labels:
Assay in all cases: DTP human tumour cell line panel, 48 h
U-251 = test system: U-251
T47D = test system: T47D
NCI-H460 = test system: NCI-H460
MDA-MB-231 = test system: MDA-MB-231
K562 = test system: K562
Hs-578T = test system: Hs-578T
IGROV-1 = test system: IGROV-1
OVCAR-4 = test system: OVCAR-4
HOP-62 = test system: HOP-62
SK-MEL-5 = test system: SK-MEL-5
UACC-62 = test system: UACC-62
UO-31 = test system: UO-31
NCI/ADR-RES = test system: NCI/ADR-RES
NCI-H23 = test system: NCI-H23
HL-60 = test system: HL-60
ACHN = test system: ACHN
SK-MEL-28 = test system: SK-MEL-28
SF-539 = test system: SF-539
HOP-92 = test system: HOP-92
SR = test system: SR

Structure (SMILES) | GI50 (U-251) | GI50 (T47D) | GI50 (NCI-H460) | GI50 (MDA-MB-231) | GI50 (K562) | GI50 (Hs-578T) | GI50 (IGROV-1) | GI50 (OVCAR-4) | GI50 (HOP-62) | GI50 (SK-MEL-5) | GI50 (UACC-62) | GI50 (UO-31) | GI50 (NCI/ADR-RES) | GI50 (NCI-H23) | GI50 (HL-60) | GI50 (ACHN) | GI50 (SK-MEL-28) | GI50 (SF-539) | GI50 (HOP-92) | GI50 (SR)
Oc1ccc2c(c1)OCC(O)(c1ccccc1O)C2 (centres undefined) | > 100 µM (inactive) | > 100 µM (inactive) | > 100 µM (inactive) | > 100 µM (inactive) | > 100 µM (inactive) | 97.5 µM (inactive) | > 100 µM (inactive) | > 100 µM (inactive) | > 100 µM (inactive) | > 100 µM (inactive) | > 100 µM (inactive) | > 100 µM (inactive) | > 100 µM (inactive) | > 100 µM (inactive) | > 100 µM (inactive) | > 100 µM (inactive) | > 100 µM (inactive) | > 100 µM (inactive) | > 100 µM (inactive) | –
O=C1Cc2c([nH]c3ccc(Br)cc23)-c2cc(Br)ccc2N1 | > 100 µM (inactive) | > 100 µM (inactive) | > 100 µM (inactive) | > 100 µM (inactive) | > 100 µM (inactive) | – | – | > 100 µM (inactive) | – | > 100 µM (inactive) | > 100 µM (inactive) | > 100 µM (inactive) | > 100 µM (inactive) | > 100 µM (inactive) | – | > 100 µM (inactive) | > 100 µM (inactive) | > 100 µM (inactive) | > 100 µM (inactive) | –
CCOC(=O)N1c2ccccc2S(=O)(=O)c2ccccc21 | > 100 µM (inactive) | 67.8 µM (inactive) | > 100 µM (inactive) | > 100 µM (inactive) | > 100 µM (inactive) | > 100 µM (inactive) | > 100 µM (inactive) | > 100 µM (inactive) | > 100 µM (inactive) | > 100 µM (inactive) | > 100 µM (inactive) | > 100 µM (inactive) | > 100 µM (inactive) | > 100 µM (inactive) | > 100 µM (inactive) | > 100 µM (inactive) | > 100 µM (inactive) | > 100 µM (inactive) | – | –
Cc1cc(S(=O)(=O)Nc2nc3cc(-c4ccc(Cl)cc4)sc3c(=O)n2N)c(S)cc1Cl | 43.4 µM (inactive) | 31.3 µM (inactive) | 36.6 µM (inactive) | 56.6 µM (inactive) | 32.7 µM (inactive) | > 100 µM (inactive) | 59.6 µM (inactive) | 64.4 µM (inactive) | 36.3 µM (inactive) | 51.1 µM (inactive) | 31.7 µM (inactive) | 44.4 µM (inactive) | 52.4 µM (inactive) | 59.8 µM (inactive) | – | 26.5 µM (inactive) | 36.5 µM (inactive) | – | 72.9 µM (inactive) | –
S=C(S)N1CCN(c2ccc(Cl)c(Cl)c2)CC1 | 26.3 µM (inactive) | 16.6 µM (inactive) | – | 21.3 µM (inactive) | 19.3 µM (inactive) | 23.4 µM (inactive) | 28.7 µM (inactive) | – | 29.5 µM (inactive) | 16.1 µM (inactive) | – | – | 41.4 µM (inactive) | – | 20.9 µM (inactive) | 37.2 µM (inactive) | 25.4 µM (inactive) | 24.3 µM (inactive) | 22.3 µM (inactive) | –
CCc1n[nH]c(=O)n1NC(=O)c1ccccc1C(=O)O | > 100 µM (inactive) | – | – | > 100 µM (inactive) | > 100 µM (inactive) | – | > 100 µM (inactive) | > 100 µM (inactive) | > 100 µM (inactive) | > 100 µM (inactive) | > 100 µM (inactive) | > 100 µM (inactive) | > 100 µM (inactive) | > 100 µM (inactive) | – | > 100 µM (inactive) | > 100 µM (inactive) | > 100 µM (inactive) | > 100 µM (inactive) | > 100 µM (inactive)
CCN(CC)CCCC(C)Nc1c2ccc(Cl)cc2nc2cc(Cl)ccc12 (centres undefined) | 5.09 µM (inactive) | – | 3.31 µM (inactive) | – | 2.21 µM (inactive) | – | 4.76 µM (inactive) | 3.37 µM (inactive) | 8.18 µM (inactive) | 4.76 µM (inactive) | 6.89 µM (inactive) | 3.57 µM (inactive) | 3.44 µM (inactive) | 6.62 µM (inactive) | 1.91 µM (inactive) | – | 5.6 µM (inactive) | 4.34 µM (inactive) | 2.77 µM (inactive) | –
Nc1nc(N)c2cc(S(=O)(=O)c3ccc4ccccc4c3)ccc2n1 | 3.24 µM (inactive) | 1.46 µM (inactive) | 0.573 µM (active) | 1.62 µM (inactive) | 0.541 µM (active) | 8.39 µM (inactive) | 1.5 µM (inactive) | – | 4.63 µM (inactive) | 11.9 µM (inactive) | 2.57 µM (inactive) | 2.04 µM (inactive) | 70.5 µM (inactive) | 4.27 µM (inactive) | > 100 µM (inactive) | 2.74 µM (inactive) | > 100 µM (inactive) | 3.33 µM (inactive) | 5.86 µM (inactive) | –
CC1=NCCc2cc3[nH]c4ccccc4c3cc21 | 22.7 µM (inactive) | – | 13.3 µM (inactive) | – | 9.79 µM (inactive) | – | 26.9 µM (inactive) | 47.5 µM (inactive) | 49.3 µM (inactive) | 11.8 µM (inactive) | 14.3 µM (inactive) | 17.6 µM (inactive) | 23.7 µM (inactive) | 33 µM (inactive) | 12.1 µM (inactive) | – | 10.7 µM (inactive) | 12.6 µM (inactive) | 0.897 µM (active) | –
CC1C(c2ccccc2)O[B-](F)(c2ccccc2)[NH+]1C (centres undefined) | > 100 µM (inactive) | > 100 µM (inactive) | > 100 µM (inactive) | > 100 µM (inactive) | > 100 µM (inactive) | – | > 100 µM (inactive) | > 100 µM (inactive) | > 100 µM (inactive) | > 100 µM (inactive) | > 100 µM (inactive) | > 100 µM (inactive) | > 100 µM (inactive) | > 100 µM (inactive) | > 100 µM (inactive) | > 100 µM (inactive) | > 100 µM (inactive) | – | > 100 µM (inactive) | > 100 µM (inactive)
C=C1C(=O)[C@@]23CC[C@H]4[C@@](C)(CCC[C@@]4(C)C(=O)OC)[C@@H]2CC[C@]1(O)C3 | 3.38 µM (inactive) | – | 3.58 µM (inactive) | – | 0.604 µM (active) | – | 1.63 µM (inactive) | 1.89 µM (inactive) | 20.2 µM (inactive) | 1.93 µM (inactive) | 1.6 µM (inactive) | 2.32 µM (inactive) | 1.37 µM (inactive) | 1.57 µM (inactive) | 0.301 µM (active) | – | 1.84 µM (inactive) | 1.76 µM (inactive) | 1.78 µM (inactive) | –
CCOC(=O)/C(C#N)=C(/NNc1ccccc1)c1ccncc1C(=O)O | > 100 µM (inactive) | 8.17 µM (inactive) | > 28.1 µM (inactive) | > 100 µM (inactive) | 3.28 µM (inactive) | > 100 µM (inactive) | > 100 µM (inactive) | > 100 µM (inactive) | > 100 µM (inactive) | 9.82 µM (inactive) | 5.15 µM (inactive) | 4.49 µM (inactive) | – | > 100 µM (inactive) | 2.75 µM (inactive) | > 21.5 µM (inactive) | > 39.1 µM (inactive) | 24.7 µM (inactive) | > 100 µM (inactive) | –
COC(=O)[C@@H]1C[C@@H]2c3ccccc3N(S(=O)(=O)c3ccccc3)[C@@H]2N1C(=O)OC | > 100 µM (inactive) | – | > 100 µM (inactive) | > 100 µM (inactive) | > 100 µM (inactive) | > 100 µM (inactive) | > 100 µM (inactive) | > 100 µM (inactive) | > 100 µM (inactive) | > 100 µM (inactive) | > 100 µM (inactive) | > 100 µM (inactive) | > 100 µM (inactive) | 37.1 µM (inactive) | > 100 µM (inactive) | > 100 µM (inactive) | > 100 µM (inactive) | > 100 µM (inactive) | > 100 µM (inactive) | > 100 µM (inactive)
CC(C)(C)OC/C=C(/CO)[C@@H]1C=C[C@H](O)C1 | > 100 µM (inactive) | > 100 µM (inactive) | > 100 µM (inactive) | > 100 µM (inactive) | > 100 µM (inactive) | – | – | > 100 µM (inactive) | > 100 µM (inactive) | – | > 100 µM (inactive) | > 100 µM (inactive) | > 100 µM (inactive) | > 100 µM (inactive) | – | > 100 µM (inactive) | > 100 µM (inactive) | > 100 µM (inactive) | – | –
COc1cc(S(=O)(=O)Nc2ccc(-c3csc(N4C(=O)C(C)SC4c4ccccc4O)n3)cc2)ccc1Cl (centres undefined) | – | 13.3 µM (inactive) | – | – | 32.8 µM (inactive) | 31.2 µM (inactive) | 35.8 µM (inactive) | – | 82.6 µM (inactive) | 32.1 µM (inactive) | 31 µM (inactive) | 38.6 µM (inactive) | > 100 µM (inactive) | 30.1 µM (inactive) | 27.3 µM (inactive) | 65.8 µM (inactive) | 16.1 µM (inactive) | 34.8 µM (inactive) | 31.3 µM (inactive) | 36.2 µM (inactive)
O=C1C=C(c2c(O)ccc3ccccc23)c2ccccc2C1=O | 2.21 µM (inactive) | – | 6.32 µM (inactive) | 3.85 µM (inactive) | 3.08 µM (inactive) | – | 3.3 µM (inactive) | 1.92 µM (inactive) | 13 µM (inactive) | 2.51 µM (inactive) | 2.35 µM (inactive) | 2.24 µM (inactive) | 3.15 µM (inactive) | 2.15 µM (inactive) | 2.65 µM (inactive) | 3.44 µM (inactive) | 9.95 µM (inactive) | 2.09 µM (inactive) | 2.22 µM (inactive) | –
O=C1C2=C(C3=NCCc4c[nH]c1c43)c1c(cc(Br)c(O)c1Br)CCN2 | 11.9 µM (inactive) | – | 9.27 µM (inactive) | – | 15 µM (inactive) | – | 13.6 µM (inactive) | 11 µM (inactive) | 25.3 µM (inactive) | 9.1 µM (inactive) | 3.47 µM (inactive) | 18.2 µM (inactive) | 14.5 µM (inactive) | 13.4 µM (inactive) | 3.48 µM (inactive) | – | 17.2 µM (inactive) | 13.5 µM (inactive) | 20.6 µM (inactive) | –
